Our source for the IC50 values is US6274738A, “Carboxamide derivatives having aryl and thiazole rings” (Geron Corporation, priority 1997, dated 2001).

Usually pIC50 stands for the IC50 on a negative log10 scale, so that one unit is a factor of ten.

pIC50: −log10 of the molar value.

T1 sequence (P49642 whole entry): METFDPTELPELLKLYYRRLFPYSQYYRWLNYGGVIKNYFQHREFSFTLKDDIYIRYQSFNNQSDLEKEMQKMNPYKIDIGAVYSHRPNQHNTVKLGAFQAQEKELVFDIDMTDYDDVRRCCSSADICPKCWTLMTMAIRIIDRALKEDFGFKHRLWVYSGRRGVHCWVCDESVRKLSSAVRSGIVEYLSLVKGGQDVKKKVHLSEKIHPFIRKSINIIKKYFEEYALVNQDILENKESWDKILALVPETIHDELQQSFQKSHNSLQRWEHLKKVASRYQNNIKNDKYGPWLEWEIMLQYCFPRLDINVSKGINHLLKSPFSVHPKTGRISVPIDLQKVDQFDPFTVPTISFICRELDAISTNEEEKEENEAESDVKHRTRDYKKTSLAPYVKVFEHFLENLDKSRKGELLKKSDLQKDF
T1 sequence (P49643 whole entry): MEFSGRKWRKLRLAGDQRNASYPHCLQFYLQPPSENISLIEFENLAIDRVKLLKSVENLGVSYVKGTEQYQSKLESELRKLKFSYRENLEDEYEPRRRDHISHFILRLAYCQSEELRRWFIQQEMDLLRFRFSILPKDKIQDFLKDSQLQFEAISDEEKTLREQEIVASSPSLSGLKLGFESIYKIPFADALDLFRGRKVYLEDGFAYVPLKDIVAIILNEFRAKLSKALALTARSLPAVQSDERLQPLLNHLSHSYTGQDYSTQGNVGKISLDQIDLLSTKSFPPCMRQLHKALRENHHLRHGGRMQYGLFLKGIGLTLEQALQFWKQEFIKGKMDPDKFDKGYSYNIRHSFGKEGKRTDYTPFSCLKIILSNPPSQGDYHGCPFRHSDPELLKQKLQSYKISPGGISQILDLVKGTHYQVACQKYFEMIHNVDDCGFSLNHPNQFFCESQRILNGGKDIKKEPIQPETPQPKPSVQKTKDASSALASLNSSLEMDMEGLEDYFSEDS
T1 sequence (P09884 whole entry partner): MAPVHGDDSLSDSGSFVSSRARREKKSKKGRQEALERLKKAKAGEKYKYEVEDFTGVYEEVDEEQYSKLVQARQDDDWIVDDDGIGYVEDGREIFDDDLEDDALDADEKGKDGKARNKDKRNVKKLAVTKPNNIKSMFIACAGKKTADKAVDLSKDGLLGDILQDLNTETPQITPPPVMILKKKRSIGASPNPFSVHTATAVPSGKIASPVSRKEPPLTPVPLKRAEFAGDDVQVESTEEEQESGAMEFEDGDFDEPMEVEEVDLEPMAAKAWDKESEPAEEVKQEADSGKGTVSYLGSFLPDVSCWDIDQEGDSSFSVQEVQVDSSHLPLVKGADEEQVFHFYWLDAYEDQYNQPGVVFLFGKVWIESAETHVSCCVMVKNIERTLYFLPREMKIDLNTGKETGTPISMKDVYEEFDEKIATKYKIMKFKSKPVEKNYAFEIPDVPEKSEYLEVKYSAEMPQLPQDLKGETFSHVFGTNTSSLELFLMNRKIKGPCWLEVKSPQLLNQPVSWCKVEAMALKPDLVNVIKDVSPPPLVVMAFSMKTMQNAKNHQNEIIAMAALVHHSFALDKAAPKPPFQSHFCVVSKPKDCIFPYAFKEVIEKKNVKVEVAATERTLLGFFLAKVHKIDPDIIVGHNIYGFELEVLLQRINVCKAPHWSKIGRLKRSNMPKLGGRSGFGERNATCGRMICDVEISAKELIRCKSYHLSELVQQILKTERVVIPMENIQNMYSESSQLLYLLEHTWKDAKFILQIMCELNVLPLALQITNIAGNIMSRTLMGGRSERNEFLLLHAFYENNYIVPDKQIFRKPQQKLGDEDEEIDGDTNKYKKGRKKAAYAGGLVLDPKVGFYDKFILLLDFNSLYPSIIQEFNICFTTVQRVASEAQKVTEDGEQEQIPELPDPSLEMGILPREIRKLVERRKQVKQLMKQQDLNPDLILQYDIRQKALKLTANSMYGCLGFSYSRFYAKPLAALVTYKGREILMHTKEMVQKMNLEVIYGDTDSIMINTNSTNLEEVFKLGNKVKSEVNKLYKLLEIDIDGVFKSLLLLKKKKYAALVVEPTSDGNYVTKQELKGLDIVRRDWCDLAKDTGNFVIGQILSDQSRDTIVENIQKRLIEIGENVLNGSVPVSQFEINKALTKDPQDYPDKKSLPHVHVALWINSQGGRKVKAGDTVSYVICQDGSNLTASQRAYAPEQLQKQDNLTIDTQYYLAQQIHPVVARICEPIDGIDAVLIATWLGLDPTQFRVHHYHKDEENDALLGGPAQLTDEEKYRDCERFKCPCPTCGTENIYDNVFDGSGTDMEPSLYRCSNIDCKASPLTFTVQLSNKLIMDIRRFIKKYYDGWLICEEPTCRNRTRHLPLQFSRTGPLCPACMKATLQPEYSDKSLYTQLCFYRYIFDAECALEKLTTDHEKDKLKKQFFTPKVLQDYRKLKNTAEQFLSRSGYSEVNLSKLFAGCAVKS
T1 sequence (Q14181 whole entry partner): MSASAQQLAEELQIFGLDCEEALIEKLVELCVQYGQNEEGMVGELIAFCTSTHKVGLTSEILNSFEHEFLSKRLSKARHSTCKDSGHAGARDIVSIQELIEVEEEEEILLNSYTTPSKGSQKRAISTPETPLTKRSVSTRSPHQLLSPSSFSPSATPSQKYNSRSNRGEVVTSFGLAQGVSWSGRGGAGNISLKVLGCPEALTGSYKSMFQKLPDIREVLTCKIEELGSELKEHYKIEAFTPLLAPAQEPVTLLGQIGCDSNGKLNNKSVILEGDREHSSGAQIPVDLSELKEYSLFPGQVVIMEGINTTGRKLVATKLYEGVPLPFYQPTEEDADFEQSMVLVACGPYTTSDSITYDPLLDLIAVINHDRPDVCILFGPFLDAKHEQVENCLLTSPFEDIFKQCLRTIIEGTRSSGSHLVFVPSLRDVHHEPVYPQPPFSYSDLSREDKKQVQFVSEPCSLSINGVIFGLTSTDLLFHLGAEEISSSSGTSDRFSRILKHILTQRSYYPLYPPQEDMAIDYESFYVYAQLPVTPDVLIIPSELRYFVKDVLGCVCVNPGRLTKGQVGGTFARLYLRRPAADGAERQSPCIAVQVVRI

The assay has as its target T1, DNA primase (Homo sapiens, UniProt P49642+P49643).
T1 construct: using a nuclear extract comprising primase activity, as described above; endogenous in cells; host or cells: nuclear extract
The assay can be described thus: Primase activity assay (incorporation of radioactive dATP on poly(dT) template). To be noted: approximate concentration at which 50% of the primase enzyme activity was inhibited; determined using the methods described herein; read-out: IC50 (primase-inhibiting properties). It counts as biochemical. As for the experimental part: In the assay, primase was diluted with primase dilution buffer (50% glycerol, 50 mM Tris HCl (pH 8.0) 20 mM KCl, 1 mM EDTA, 1 mM βME) to achieve a selected reaction volume (typically, reactions were carried out in an overall volume of 60 μl). A typical 60 μl reaction volume further included 50 mM Tris HCl (pH 8.0); 20 mM KCl, 200 μg/ml BSA, 4 mM MgCl2, 2 mM fresh DTT, 2 mM rATP, 5 μCi ^32 P (800 Ci/mmol) or 2.5 μCi ^33 P (2,000 Ci/mMol) dATP, 10 μg/ml Poly (dT), and primase and polymerase α.
The recombinant 180 Kd human polymerase ax protein was isolated from a bacculovirally transduced SF9 cell as described in Wang et al. (1995) Methods in Enzymology 262: 77-84. Typically, about 0.05 μg of p180 and about 0.025 μg of a 1:1 mixture of p49/p58 primase subunits were used per reaction.
Several reactions were typically set up in parallel, although a single reaction can also be assessed. For example, a Zymate XP (Zymark Corporation; Hopkinton, Mass.) automated robot using Microlab 2200 (Hamilton; Reno, Nev.) pipeting station to transfer parallel samples to 96 well microtiter plate was used to set up several parallel simultaneous reactions.
Parallel reactions were incubated for 30 minutes at 30° C. 15 μl of each reaction was spotted into one well on a Unifilter plate (Whatman GF/C glass fiber filter bottom), typically using the automated system described. The filters were then air dried. The Unifilter plate was placed onto the vacuum chamber of a dot blot apparatus, and 200 μl of ice cold 5% TCA/20 mM sodium pyrophosphate wash was added to each well, and vacuum applied. Each filter was washed three times. 100 μl of an ice cold 70% ethanol wash was added then added to each well, and vacuum applied. The ethanol wash was repeated, and the filters allowed to air dry. Excess fluid was removed from the bottom of the plate. The bottom of the plate was sealed with a transparent sealer, and 50 μl of Microscint-20 scintillation fluid was added to each well, e.g., using a Biomek1000® (Beckman Instruments; Dallas, Tex.). The top of the plate was sealed with TOPSEAL-S® Microplate Heat Sealing Film and CPM were counted for each well using a topcount microplate scintillation counter (Packard; Downers Grove, Ill.) or Trilux Microbeta 1450 (Wallac; Gaithersburg, Md.).
An assay similar to Example 2 was also developed to measure primase activity. Although the assay is described below with reference to using a nuclear extract as the source for primase activity, one of skill will recognize that the assay can easily be adapted for purified or recombinant primase. Examples 1 and 2 provide a description of the buffers, nuclear extracts, etc.
The reagents were combined into one or more separate reaction mixtures, with the poly dT, nuclear extract, and ^32 dATP being added just before use. The reaction mixtures were incubated for 1 hour at 37° C. The reactions were spotted onto filters on a unifilter plate and treated as described in Example 2.
The primase modulator compounds show in FIG. 1 were determined to modulate primase activity in the assays shown above, using a nuclear extract comprising primase activity, as described above.
For primary screening, compounds were added at the beginning of the reaction with all reagents as described above. Compounds were tested at a concentration of 100 μM. Compounds were tested in duplicate reactions.
This concentration information was used to determine the approximate IC50 for the primase modulating agents described in FIG. 1. The extract/enzyme preparation for primase modulating agents was preincubated with the compound for 30 min at 37° C. prior to addition of the remaining reagents.
The example modulators are primase inhibitors. The IC50 s for the compounds indicated in FIG. 1 was the approximate concentration of the modulator at which 50% of the primase enzyme activity in a reaction mixture was inhibited by the modulator.
Consider `O=C(Nc1ccccc1Cl)c1csc(-c2cccnc2)n1` [Compound 2], for which the pIC50 was around 4.52.
Turning to `O=C(Nc1cccc(C(F)(F)F)c1)c1csc(-c2ccncc2)n1` [Compound 4], the pIC50 is around 4.43.
On to `O=C(Nc1ccc(C(F)(F)F)cc1)c1csc(-c2ccncc2)n1` [Compound 5], for which the negative logarithm of the IC50 (pIC50) was around 4.36.
As for `O=C(Nc1ccc(Cl)cc1)c1csc(-c2ccncc2)n1` [Compound 6], the pIC50 was around 4.43.
Take `O=C(Nc1ccc(Br)cc1)c1csc(-c2ccncc2)n1` [Compound 7]: the pIC50 was around 4.20.
`O=C(Nc1ccc(F)cc1F)c1csc(-c2ccncc2)n1` [Compound 8]: the pIC50 was around 4.72.
